For one data set, the system named is T. cruzi. Nature of the data set: In vitro evaluation against T. cruzi. It counts as cell-based. Conditions: Trypanosoma cruzi; Table 3; compounds wherein X=N.
The next data set concerns T. vivax (ILRAD700). Briefly: Ex vivo drug susceptibility assay, T. vivax. Conditions: Trypanosoma vivax. It counts as cell-based. The source says: (§1) T. congolense (IL3000), the isometamidium (ISM)-resistant T. congolense strain (MSORO M7H), T. evansi type A (RoTat 1.2), T. evansi type B (KETRI 2479) and T. equiperdum (BoTat 1.1) used for in vitro, ex vivo and in vivo experiments were kindly provided by the Institute of Tropical Medicine (ITM), and T. vivax (ILRAD700) and T. congolense (TC13) used for ex vivo and in vivo experiments, were kindly provided by the University of Brussel (VUB).
(§2) Ex Vivo Drug Susceptibility Assays for T. vivax, T. congolense ISM-Resistant, and T. evansi Type B
(§3) For Trypanosoma species/strains that were not adapted to culture conditions, donor mice were infected intraperitoneally with 10^4 parasites. Around day 5-6 post infection, blood was collected via cardiac puncture and parasites were isolated using mini-anion exchange centrifugation technique (mAECT). 4-fold dilutions of the test compounds were prepared with the highest concentration of 64 μM, and parasites were seeded at 1×10^5 parasite/well. Following 24 h of drug exposure at 37° C. and 5% CO2, resazurin was added to the wells and plates were incubated (37° C./5% CO2) for another 24 h. Cell viability was determined by fluorescence reading (Tecan®, GENios), and IC50 values were calculated by non-linear regression (dose-response curve with variable slope) using Prism 8.0 (GraphPad Software Inc., San Diego, CA, USA).

A short description of data set [1]: Cytotoxicity assay on MRC-5 fibroblasts. It counts as cell-based. Conditions: human; for CC50 at 3 day: MRC-5SV2 embryonic lung fibroblasts, Table 1, mean and SEM of two independent experiments, highest concentration 64 μM, read-out: MRC-5 off-target cytotoxicity (CC50); for IC50 at 3 day: MRC-5SV2 human embryonic lung fibroblasts. As to the method: MRC-5SV2 (Sigma-Aldrich/ECACC, catalogue number 84100401) human embryonic lung fibroblasts were used to perform cytotoxicity assays. The cells were cultured in minimum essential medium (MEM, Life Technologies) with Earle's salt medium, supplemented with L-glutamine, NaHCO3 and 5% inactivated fetal bovine serum (iFBS). Cells were seeded at 1.5×10^4 cells/well and 4-fold compound dilutions were immediately added with a highest in-test concentration of 64 μM. After a 3-day incubation, resazurin (Sigma-Aldrich) was added to each well (final concentration of 10 μg mL^−1), and cell viability was assessed by fluorescent reading (Tecan®, GENios) following 4 h of incubation with resazurin (37° C./5% CO2). The results were expressed as percentage reduction in cell growth/viability compared to control wells and the 50% cytotoxic concentration (CC50) was calculated for each of the compounds.

The next data set relates to T. brucei (Squib 427). Nature of the data set: In vitro drug susceptibility assay, T. brucei. It counts as cell-based. Conditions: Trypanosoma brucei. As to the method:
(§4) Drug susceptibility assays with T. brucei (Squib 427), T. evansi type A (RoTat 1.2) and T. equiperdum (BoTat 1.1) were performed under similar conditions. Parasites were cultured in HMI-9 culture medium supplemented with 10% iFBS. To determine in vitro susceptibility of the abovementioned Trypanosoma species, 10 concentrations of a 4-fold dilution series (with a highest in-test concentration of 64 μM) was prepared for each compound, and parasites were seeded at 1.5×10^4 parasite/well. After 72 h of drug exposure at 37° C. with 5% CO2, resazurin was added to the wells (final concentration of 10 μg mL^−1), followed by another incubation for 24 h. Cell viability was determined by fluorescence reading (Tecan®, GENios) and 50% inhibitory concentration (IC50) was calculated for each compound.

The subject of another data set is T. congolense (IL3000). Briefly: In vitro drug susceptibility assay, T. congolense. The conditions noted are these: Trypanosoma congolense. It counts as cell-based. As to the method: Drug susceptibility assays for T. congolense (IL3000) were performed with parasites cultured in HMI-9 medium supplemented with 15% horse serum. Parasites were seeded at a concentration of 1.5×10^4 parasite/well and exposed to a 4-fold compound dilution series starting at a highest in-test concentration of 64 μM. Plates were incubated for 72 h at 34° C. and 5% CO2, followed by the addition of resazurin (Sigma, Aldrich) and a further incubation period of 24 h. Cell viability was quantified by fluorescence reading (Tecan®, GENios), and IC50 values were calculated by non-linear regression (dose-response curve with variable slope) using Prism 8.0 (GraphPad Software Inc., San Diego, CA, USA).

The subject of another data set is L. infantum. Briefly: In vitro evaluation against L. infantum. It counts as cell-based. The conditions noted are these: Leishmania infantum; Table 3; compounds wherein X=N.
A short description of data set [2]: In vitro evaluation on PMM. It counts as cell-based. Conditions: mouse, Table 3, compounds wherein X=N.
The subject of data set [3] is T. evansi type A (RoTat 1.2). Briefly: In vitro drug susceptibility assay, T. evansi type A. It counts as cell-based. As to the method: as §4
The test system of data set [4] is T. equiperdum (BoTat 1.1). Nature of the data set: In vitro drug susceptibility assay, T. equiperdum. It counts as cell-based. The conditions noted are these: Trypanosoma equiperdum. As for the experimental part: as §4
Data set [5] is described as follows: In vitro metabolic stability, mouse liver S9. It counts as in vitro ADME. The conditions noted are these: for metabolic stability in mouse liver microsomes: mouse liver S9, phase-I, without 1-ABT; for effect of 1-aminobenzotriazole (1-ABT) on phase-I metabolic decay: mouse microsome pre-incubated with 1-ABT. As for the experimental part: The metabolic stability of selected compounds was determined in the presence of mice, horse, and bovine liver microsome fractions (S9) through phase-I (CYP450 and NADPH dependent enzymes) and Phase-II (UGT enzymes) metabolisms. Samples were collected after 0, 15, 30, and 60 minutes of incubation and the corresponding loss of parent compound was determined via liquid chromatography (UPLC) (Waters Aquity™) coupled with tandem quadrupole mass spectrometry (MS^2) (Waters Xevo™), equipped with an electrospray ionization (ESI) interface and operated in multiple reaction monitoring (MRM) mode.
(Liver microsomes are a subcellular fraction often used to study metabolism.)

The subject of data set [6] is isometamidium (ISM)-resistant T. congolense strain (MSORO M7H). Nature of the data set: Ex vivo drug susceptibility assay, T. congolense ISM-resistant. It counts as cell-based. The conditions noted are these: Trypanosoma congolense; Table 2; two independent repeat experiments; read-out: IC50 T. congolense ISM-R.
From the text: as §1, §2, §3

Data set [7] concerns T. evansi type B (KETRI 2479). Nature of the data set: Ex vivo drug susceptibility assay, T. evansi type B. It counts as cell-based. The conditions noted are these: Table 2; two independent repeat experiments.
From the text: as §1, §2, §3

The mark [8] stands for this setting: Table 1, mean and SEM of two independent experiments, read-out: T. vivax in vitro activity (IC50).
[9] abbreviates: Table 3, compounds wherein X=N, read-out: IC50 T. vivax.
Setting [10] is: Table 1, mean and SEM of two independent experiments, read-out: T. brucei in vitro activity (IC50).
The mark [11] stands for this setting: Table 3, compounds wherein X=N, read-out: IC50 T. brucei.
Setting [12] is: Table 3, compounds wherein X=N, type not stated, read-out: IC50 T. evansi.
Setting [13] is: Table 2, two independent repeat experiments, read-out: IC50 T. vivax.
Where [14] appears, read: Table 2, two independent repeat experiments.
The mark [15] stands for this setting: Table 2, two independent repeat experiments, read-out: IC50 T. brucei.
The mark [16] stands for this setting: Table 2, two independent repeat experiments, read-out: IC50 T. evansi (type A).

The source of these data is patent US20250320245A1, “Nucleoside Analogues for the Treatment of Parasitic Infections” (Universiteit Antwerpen, priority 2021, published 2025).

SMILES strings stand for the structures. Like-named read-outs stand apart in the source and are kept apart here.

For `CCCCSc1ncnc2c1cnn2[C@@H]1O[C@H](CO)[C@@H](O)[C@H]1O` [JB1033, 4-butylthio-1-β-D-ribofuranosyl-1H-pyrazolo[3,4-d]pyrimidine], the IC50 in the data set on T. cruzi is 7.46 µM; in the data set with T. vivax (ILRAD700) (setting [8]), 1210 ± 420 nM; in the data set with T. vivax (ILRAD700) (setting [9]), 1200 nM; in the data set with T. brucei (Squib 427) (setting [10]), 260 ± 10 nM; in the data set with T. brucei (Squib 427) (setting [11]), 110 nM; in the data set on T. congolense (IL3000) (Table 3, compounds wherein X=N), 200 nM. For the same compound, the IC50 with L. infantum is 7.25 µM; in data set [2], > 64 µM; in data set [3] (setting [12]), 60 nM; in [4] (Table 3, compounds wherein X=N) it was 10 nM. Further, in [1], the 50% cytotoxic concentration (CC50) at 3 day was > 64 µM. The IC50 at 3 day in [1] (Table 3, compounds wherein X=N) was > 64 µM.
Consider `CCSc1ncnc2c1cnn2[C@@H]1O[C@H](CO)[C@@H](O)[C@H]1O` [JB1032, 4-ethylthio-1-β-D-ribofuranosyl-1H-pyrazolo[3,4-d]pyrimidine], for which the IC50 with T. cruzi came to 5.61 µM; with T. vivax (ILRAD700) (setting [8]) it was 1360 ± 300 nM; in the data set on T. vivax (ILRAD700) (setting [9]), 1420 nM; with T. brucei (Squib 427) (setting [10]), 510 ± 50 nM; in the data set with T. brucei (Squib 427) (setting [11]), 450 nM; in the data set with T. congolense (IL3000) (Table 3, compounds wherein X=N) it was 290 nM. Moreover, the IC50 in the data set with L. infantum was 5.04 µM; in data set [2], > 64 µM; in data set [3] (setting [12]), 390 nM; in [4] (Table 3, compounds wherein X=N), 50 nM. Further, the CC50 at 3 day in [1] was > 64 µM. In addition, in [1] (Table 3, compounds wherein X=N), the IC50 at 3 day was > 64 µM.
Take `CSc1ncnc2c1ccn2[C@@H]1O[C@H](CO)[C@@H](O)[C@H]1O` [FH15961/CL5565]: the IC50 turned out to be 5 ± 10 nM with T. vivax (ILRAD700) (setting [8]); 4 ± 2 nM with T. vivax (ILRAD700) (setting [13]); 430 ± 20 nM in data set [6]; 16 ± 3 nM in [7]; 440 ± 1 nM in the data set with T. brucei (Squib 427) (setting [10]); 490 ± 100 nM with T. brucei (Squib 427) (setting [15]). Besides, the results for the IC50 (in the data set with T. congolense (IL3000) (setting [14]); in data set [3] (setting [16]); in data set [4] (setting [14])) were 43 ± 8 nM, 760 ± 30 nM and 40 ± 0.2 nM, respectively. Moreover, the CC50 at 3 day in data set [1] was > 64 µM. For the same compound, the IC50 at 3 day in data set [1] (setting [14]) was > 64 µM. Moreover, the “metabolic stability in mouse liver microsomes” value in data set [5] is “phase-I metabolic degradation”. Moreover, the “effect of 1-aminobenzotriazole (1-ABT) on phase-I metabolic decay” value in data set [5] is recorded as “adequately block phase-I metabolic decay”.
Consider `C=CCSc1ncnc2c1ccn2[C@@H]1O[C@H](CO)[C@@H](O)[C@H]1O` [FH15963, 4-S-allyl-N7-(β-D-ribofuranosyl)pyrrolo[2,3-d]pyrimidine], for which the half-maximal inhibitory concentration (IC50) was found to be 34 ± 4 nM in the data set with T. vivax (ILRAD700) (setting [8]); 34 ± 4 nM with T. vivax (ILRAD700) (setting [13]); 140 ± 50 nM in data set [6]; 14 ± 4 nM in data set [7]; 34 ± 1 nM in the data set on T. brucei (Squib 427) (setting [10]); 34 ± 1 nM in the data set on T. brucei (Squib 427) (setting [15]). Moreover, the IC50 with T. congolense (IL3000) (setting [14]) was found to be 180 ± 8 nM; in data set [3] (setting [16]), 100 ± 5 nM; in data set [4] (setting [14]), 25 ± 4 nM. Further, the CC50 at 3 day in [1] is > 64 µM. Also, the concentration for half-maximal inhibition (IC50) at 3 day in data set [1] (setting [14]) was > 64 µM. In addition, in data set [5], the “metabolic stability in mouse liver microsomes” value was “phase-I metabolic degradation”. Besides, the “effect of 1-aminobenzotriazole (1-ABT) on phase-I metabolic decay” value in data set [5] was “adequately block phase-I metabolic decay”.
Take `OC[C@H]1O[C@@H](n2ncc3c(SCc4ccccc4)ncnc32)[C@H](O)[C@@H]1O` [JB1034, 4-benzylthio-1-β-D-ribofuranosyl-1H-pyrazolo[3,4-d]pyrimidine]: the half-maximal inhibitory concentration (IC50) with T. cruzi was 6.02 µM; in the data set with T. vivax (ILRAD700) (setting [9]), 7240 nM; in the data set on T. brucei (Squib 427) (setting [11]) it was 50 nM; in the data set on T. congolense (IL3000) (Table 3, compounds wherein X=N), 30 nM; with L. infantum it was 10.1 µM; in [2] it was > 64 µM. In addition, the IC50 in data set [3] (setting [12]) worked out at 100 nM; in [4] (Table 3, compounds wherein X=N), 20 nM. In addition, the IC50 at 3 day in [1] (Table 3, compounds wherein X=N) was > 64 µM.
`CSc1ncnc2c1cnn2[C@@H]1O[C@H](CO)[C@@H](O)[C@H]1O` [JB1031, 4-methylthio-1-β-D-ribofuranosyl-1H-pyrazolo[3,4-d]pyrimidine]: the IC50 is 2.15 µM in the data set on T. cruzi; 830 nM with T. vivax (ILRAD700) (setting [9]); 540 nM in the data set with T. brucei (Squib 427) (setting [11]); 70 nM with T. congolense (IL3000) (Table 3, compounds wherein X=N); 10.8 µM in the data set with L. infantum; > 64 µM in data set [2]. For the same compound, the IC50 is 610 nM in [3] (setting [12]) and 90 nM in data set [4] (Table 3, compounds wherein X=N). Moreover, in [1] (Table 3, compounds wherein X=N), the IC50 at 3 day was > 64 µM.

One may read the IC50 as the concentration at which inhibition is half-maximal. The CC50 is the concentration that lowers cell viability or growth by half.
